# Results reported in patent publication US20250249003A1, “COMBINATIONS OF KRAS G12D INHIBITORS WITH IRINOTECAN AND RELATED METHODS OF TREATMENT” (MIRATI THERAPEUTICS, INC., priority 2021, published 2025).
# Where a name gives a salt, the structure may show the parent alone.
# Tests used:
# [1] = target: butyrylcholinesterase (hBChE) (Homo sapiens, UniProt P06276); settings: higher activity than CES; cited from earlier work
# [2] = cited from earlier work
# [3] = target: T1, CES2 (Homo sapiens, UniProt O00748); settings: higher affinity than CES1; cited from earlier work
# T1 sequence (O00748 27-559): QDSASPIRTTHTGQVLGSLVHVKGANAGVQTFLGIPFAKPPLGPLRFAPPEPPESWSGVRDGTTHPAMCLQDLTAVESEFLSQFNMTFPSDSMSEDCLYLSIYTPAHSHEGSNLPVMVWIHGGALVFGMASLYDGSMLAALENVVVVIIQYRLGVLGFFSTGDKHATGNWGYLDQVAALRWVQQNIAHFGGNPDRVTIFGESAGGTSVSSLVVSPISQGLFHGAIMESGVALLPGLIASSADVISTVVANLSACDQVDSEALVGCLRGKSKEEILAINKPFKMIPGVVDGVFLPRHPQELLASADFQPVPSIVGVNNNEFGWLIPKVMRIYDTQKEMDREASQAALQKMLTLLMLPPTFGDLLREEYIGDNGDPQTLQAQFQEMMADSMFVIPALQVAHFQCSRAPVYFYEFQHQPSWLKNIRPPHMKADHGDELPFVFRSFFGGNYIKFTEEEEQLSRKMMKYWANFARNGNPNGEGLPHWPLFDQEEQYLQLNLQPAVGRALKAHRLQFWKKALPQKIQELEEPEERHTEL
# [4] = tested on: Panc 02.03 cells; test: Panc 02.03 pancreatic cancer xenograft, average tumor volumes in nude/nude mice; format: in vivo; settings: single agent, 30 mg/kg i.p. BID 2x/week; day 22
# Experimental: Immunocompromised nude/nude mice are inoculated in the right hind flank with cells harboring a KRas G12D mutation. […] The first group is administered vehicle only. […] Tumor volumes are measured using a caliper every two-three days and tumor volumes are calculated by the formula: […].
# butyrylcholinesterase (hBChE), sequence (P06276 29-602): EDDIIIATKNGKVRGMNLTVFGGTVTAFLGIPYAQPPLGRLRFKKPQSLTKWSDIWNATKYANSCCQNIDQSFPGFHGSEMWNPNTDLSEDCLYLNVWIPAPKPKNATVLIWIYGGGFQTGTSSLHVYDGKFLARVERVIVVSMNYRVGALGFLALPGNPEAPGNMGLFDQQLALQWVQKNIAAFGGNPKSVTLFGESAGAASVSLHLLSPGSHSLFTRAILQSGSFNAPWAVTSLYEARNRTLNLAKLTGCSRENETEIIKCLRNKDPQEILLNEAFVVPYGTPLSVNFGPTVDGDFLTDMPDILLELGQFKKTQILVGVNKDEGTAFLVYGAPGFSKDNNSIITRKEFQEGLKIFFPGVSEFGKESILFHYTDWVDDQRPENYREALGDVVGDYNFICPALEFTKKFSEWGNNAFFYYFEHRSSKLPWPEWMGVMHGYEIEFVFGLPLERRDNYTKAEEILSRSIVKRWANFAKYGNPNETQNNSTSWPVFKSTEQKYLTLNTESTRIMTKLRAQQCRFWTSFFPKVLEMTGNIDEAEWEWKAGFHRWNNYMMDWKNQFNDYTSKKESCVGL
structure (smiles),measurement,setting,value
"CCc1c2c(nc3ccc(OC(=O)N4CCC(N5CCCCC5)CC4)cc13)-c1cc3c(c(=O)n1C2)COC(=O)[C@]3(O)CC [Irinotecan, (S)-4,11-diethyl-3,4,12,14-tetrahydro-4-hydroxy-3,14-dioxo-1H-pyrano[3′,4′:6,7]indolizino[1,2-β]quinolin-9-yl ester[1,4′-bipiperidine]-1′-carboxylic acid trihydrate monohydrochloride]","activity for irinotecan, butyrylcholinesterase relative to CES",[1],6 fold
same,fraction of pro-drug hydrolyzed into active metabolite SN-38,[2]; in vivo,2-5%
same,"affinity for irinotecan, CES2 relative to CES1",[3],12.5 fold
"C#Cc1c(F)ccc2cc(O)cc(-c3ncc4c(N5C[C@H]6CC[C@@H](C5)N6)nc(OC[C@@]56CCCN5C[C@H](F)C6)nc4c3F)c12 [MRTX1133, 4-(4-((1R,5S)-3,8-diazabicyclo[3.2.1]octan-3-yl)-8-fluoro-2-(((2R,7aS)-2-fluorohexahydro-1Hpyrrolizin-7a-yl)methoxy)pyrido[4,3-d]pyrimidin-7-yl)-5-ethynyl-6-fluoronaphthalen-2-ol]",tumor growth,[4],72%
"CCc1c2c(nc3ccc(O)cc13)-c1cc3c(c(=O)n1C2)COC(=O)[C@]3(O)CC [SN-38, ethyl-10-hydroxy-camptothecin]",time to peak plasma concentration,[2]; after infusion,≤ 2 h
same,distribution half-life,[2]; in vivo,approximately 8 min
